Measured values reported in article PMC6590626 (OncoTargets and therapy, 2019).

Molecular target: T1, IKKβ (Homo sapiens, UniProt O14920)
T1 sequence (O14920 1-756): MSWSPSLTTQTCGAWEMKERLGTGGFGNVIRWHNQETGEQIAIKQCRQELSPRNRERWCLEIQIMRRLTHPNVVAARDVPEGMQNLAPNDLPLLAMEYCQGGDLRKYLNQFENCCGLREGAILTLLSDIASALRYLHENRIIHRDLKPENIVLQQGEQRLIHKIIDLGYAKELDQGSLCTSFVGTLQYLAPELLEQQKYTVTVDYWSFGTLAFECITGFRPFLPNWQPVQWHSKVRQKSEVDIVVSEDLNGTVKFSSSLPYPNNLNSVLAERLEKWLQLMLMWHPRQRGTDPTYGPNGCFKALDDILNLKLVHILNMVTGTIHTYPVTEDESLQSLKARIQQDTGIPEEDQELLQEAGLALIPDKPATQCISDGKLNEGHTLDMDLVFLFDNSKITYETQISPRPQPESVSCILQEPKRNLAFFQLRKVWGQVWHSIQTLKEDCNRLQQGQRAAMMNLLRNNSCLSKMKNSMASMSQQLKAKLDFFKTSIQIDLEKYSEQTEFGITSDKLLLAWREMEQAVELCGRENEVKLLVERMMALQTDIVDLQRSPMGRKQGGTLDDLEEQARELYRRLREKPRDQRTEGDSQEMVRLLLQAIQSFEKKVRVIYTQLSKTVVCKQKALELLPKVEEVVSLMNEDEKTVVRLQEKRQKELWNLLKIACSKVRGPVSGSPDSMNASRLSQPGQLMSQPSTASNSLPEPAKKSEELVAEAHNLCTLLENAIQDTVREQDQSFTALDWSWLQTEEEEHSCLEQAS
Test: SPR
Type: binding

`CC(C)C1=CC2=CC[C@@H]3[C@](C)(CCC[C@@]3(C)C(=O)O)[C@H]2CC1` [AA, Abietic acid] showed a Kd of 32 µM.
